Our source for the % of control and % of inhibition values is ChEMBL document CHEMBL5465560, “Selectivity Literature for EUbOPEN Chemogenomic Library” (2024).

Structures are written as SMILES.

Test [1] concerns the target Mitogen-activated protein kinase 14 (Homo sapiens, UniProt Q16539). The test is described as follows: Selectivity interaction (KinomeScan (DiscoverX)) EUB0000595a MAPK14. As to conditions: at 10 µM.
The target of test [2] is G protein-coupled receptor kinase 4 (Homo sapiens) (UniProt P32298). The experiment in a line: Selectivity interaction (KinomeScan (DiscoverX)) EUB0000595a GRK4. Conditions: at 10 µM.
Test [3] deals with Epidermal growth factor receptor (Homo sapiens), P00533 [UNDEFINED MUTATION]. The experiment in a line: Selectivity interaction (KinomeScan (DiscoverX)) EUB0001619a EGFR. Conditions: at 1 µM.
For test [4], the target named is T1, Scaffold protein ILK (Homo sapiens) (UniProt Q13418).
T1 sequence (whole entry): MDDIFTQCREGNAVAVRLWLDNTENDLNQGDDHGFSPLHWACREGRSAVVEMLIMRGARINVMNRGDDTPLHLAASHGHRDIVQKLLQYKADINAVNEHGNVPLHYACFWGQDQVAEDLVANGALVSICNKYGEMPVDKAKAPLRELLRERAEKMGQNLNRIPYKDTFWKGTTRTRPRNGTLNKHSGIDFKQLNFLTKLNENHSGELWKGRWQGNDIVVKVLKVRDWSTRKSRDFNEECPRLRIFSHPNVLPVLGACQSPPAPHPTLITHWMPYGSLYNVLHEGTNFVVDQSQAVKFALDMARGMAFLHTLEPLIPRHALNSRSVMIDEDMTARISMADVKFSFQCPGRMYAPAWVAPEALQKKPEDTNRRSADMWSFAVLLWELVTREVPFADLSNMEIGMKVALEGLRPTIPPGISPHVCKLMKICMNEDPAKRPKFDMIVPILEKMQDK
The experiment in a line: Selectivity interaction (ActivX KiNativ screen (ex vivo kinase selectivity in human PBMCs)) EUB0001619a ILK. Format: cell-based. As to conditions: PBMC, at 1 µM.

The target of test [5] is Receptor tyrosine-protein kinase erbB-4 (Homo sapiens, UniProt Q15303). As to conditions: at 10 µM.
Test [6] concerns the target T2, Serine/threonine-protein kinase tousled-like 1 (Homo sapiens) (UniProt Q9UKI8).
T2 sequence (whole entry): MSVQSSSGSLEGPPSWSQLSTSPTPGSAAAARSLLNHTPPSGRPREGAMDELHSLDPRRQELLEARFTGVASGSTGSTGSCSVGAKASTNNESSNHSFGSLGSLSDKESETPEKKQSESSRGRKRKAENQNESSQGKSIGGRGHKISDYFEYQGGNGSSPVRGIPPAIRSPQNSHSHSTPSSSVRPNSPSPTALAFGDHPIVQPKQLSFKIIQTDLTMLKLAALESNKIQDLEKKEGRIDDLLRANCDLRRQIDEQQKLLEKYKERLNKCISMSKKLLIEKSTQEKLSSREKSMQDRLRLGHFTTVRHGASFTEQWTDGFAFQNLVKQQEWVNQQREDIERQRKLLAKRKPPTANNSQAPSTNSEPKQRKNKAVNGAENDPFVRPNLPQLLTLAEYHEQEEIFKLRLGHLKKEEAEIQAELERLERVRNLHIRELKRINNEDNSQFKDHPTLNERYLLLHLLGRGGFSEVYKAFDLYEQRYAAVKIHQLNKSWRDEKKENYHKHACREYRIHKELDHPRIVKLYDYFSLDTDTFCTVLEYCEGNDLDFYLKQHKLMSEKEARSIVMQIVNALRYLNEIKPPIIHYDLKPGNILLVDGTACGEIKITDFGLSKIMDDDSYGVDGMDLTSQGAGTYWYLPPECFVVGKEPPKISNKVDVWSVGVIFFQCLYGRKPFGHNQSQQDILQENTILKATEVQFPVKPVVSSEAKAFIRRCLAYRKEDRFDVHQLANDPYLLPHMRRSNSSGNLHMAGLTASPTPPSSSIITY
As to conditions: at 10 µM.

The target of test [7] is Maternal embryonic leucine zipper kinase (Homo sapiens) (UniProt Q14680). The experiment in a line: Selectivity interaction (KinomeScan (DiscoverX)) EUB0000695a MELK. Conditions: at 100 nM.
In test [8] the target is Dual specificity mitogen-activated protein kinase kinase 1 (Homo sapiens, UniProt Q02750). The test is described as follows: Selectivity interaction (Kinase panel (literature)) EUB0001199aCl MAP2K1. As to conditions: at 1 µM.
The target of test [9] is T3, Mitogen-activated protein kinase 13 (Homo sapiens) (UniProt O15264).
T3 sequence (whole entry): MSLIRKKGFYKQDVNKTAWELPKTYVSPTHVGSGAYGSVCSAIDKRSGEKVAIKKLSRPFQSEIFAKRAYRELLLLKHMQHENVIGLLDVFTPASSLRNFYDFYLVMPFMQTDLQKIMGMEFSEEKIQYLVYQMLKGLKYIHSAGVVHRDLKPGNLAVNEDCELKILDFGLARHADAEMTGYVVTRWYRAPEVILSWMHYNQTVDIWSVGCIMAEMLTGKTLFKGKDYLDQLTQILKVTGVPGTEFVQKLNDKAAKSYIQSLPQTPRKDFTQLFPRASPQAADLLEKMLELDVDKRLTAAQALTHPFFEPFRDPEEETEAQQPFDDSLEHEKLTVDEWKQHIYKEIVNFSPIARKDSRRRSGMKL
The test is described as follows: Selectivity interaction (Millipore kinase profiler) EUB0000124b MAPK13. Conditions: at 10 µM.

Chain of G protein-coupled receptor kinase 4 (Homo sapiens) (P32298 whole entry, looked up): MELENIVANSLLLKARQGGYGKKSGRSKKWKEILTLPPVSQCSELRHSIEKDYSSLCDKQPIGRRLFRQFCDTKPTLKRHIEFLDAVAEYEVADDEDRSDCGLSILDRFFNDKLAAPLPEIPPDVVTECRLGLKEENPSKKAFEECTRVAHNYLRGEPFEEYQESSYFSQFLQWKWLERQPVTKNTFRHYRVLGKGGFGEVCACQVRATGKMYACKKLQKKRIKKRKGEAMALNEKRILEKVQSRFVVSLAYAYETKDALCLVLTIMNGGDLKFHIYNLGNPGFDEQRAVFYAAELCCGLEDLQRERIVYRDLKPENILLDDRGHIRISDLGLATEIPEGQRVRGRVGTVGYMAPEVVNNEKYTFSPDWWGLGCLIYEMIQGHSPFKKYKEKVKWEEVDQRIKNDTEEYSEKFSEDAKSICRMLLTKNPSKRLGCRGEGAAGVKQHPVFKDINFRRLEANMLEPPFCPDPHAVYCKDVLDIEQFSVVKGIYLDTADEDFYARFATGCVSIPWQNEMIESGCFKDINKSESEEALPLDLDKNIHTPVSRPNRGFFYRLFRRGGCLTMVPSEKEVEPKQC
Chain of Dual specificity mitogen-activated protein kinase kinase 1 (Q02750 whole entry): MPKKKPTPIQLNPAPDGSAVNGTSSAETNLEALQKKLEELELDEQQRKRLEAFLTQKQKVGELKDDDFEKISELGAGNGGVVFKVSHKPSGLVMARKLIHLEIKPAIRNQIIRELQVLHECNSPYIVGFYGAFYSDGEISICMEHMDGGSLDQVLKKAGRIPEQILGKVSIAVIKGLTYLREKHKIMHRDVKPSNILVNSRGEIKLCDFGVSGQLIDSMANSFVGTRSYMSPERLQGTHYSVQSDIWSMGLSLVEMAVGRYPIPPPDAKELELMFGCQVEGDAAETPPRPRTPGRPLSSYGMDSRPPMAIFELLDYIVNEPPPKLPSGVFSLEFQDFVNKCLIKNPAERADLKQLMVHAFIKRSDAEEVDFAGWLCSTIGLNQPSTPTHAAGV
Chain of Epidermal growth factor receptor (Homo sapiens), P00533 [UNDEFINED MUTATION] (P00533 whole entry, looked up, change not shown): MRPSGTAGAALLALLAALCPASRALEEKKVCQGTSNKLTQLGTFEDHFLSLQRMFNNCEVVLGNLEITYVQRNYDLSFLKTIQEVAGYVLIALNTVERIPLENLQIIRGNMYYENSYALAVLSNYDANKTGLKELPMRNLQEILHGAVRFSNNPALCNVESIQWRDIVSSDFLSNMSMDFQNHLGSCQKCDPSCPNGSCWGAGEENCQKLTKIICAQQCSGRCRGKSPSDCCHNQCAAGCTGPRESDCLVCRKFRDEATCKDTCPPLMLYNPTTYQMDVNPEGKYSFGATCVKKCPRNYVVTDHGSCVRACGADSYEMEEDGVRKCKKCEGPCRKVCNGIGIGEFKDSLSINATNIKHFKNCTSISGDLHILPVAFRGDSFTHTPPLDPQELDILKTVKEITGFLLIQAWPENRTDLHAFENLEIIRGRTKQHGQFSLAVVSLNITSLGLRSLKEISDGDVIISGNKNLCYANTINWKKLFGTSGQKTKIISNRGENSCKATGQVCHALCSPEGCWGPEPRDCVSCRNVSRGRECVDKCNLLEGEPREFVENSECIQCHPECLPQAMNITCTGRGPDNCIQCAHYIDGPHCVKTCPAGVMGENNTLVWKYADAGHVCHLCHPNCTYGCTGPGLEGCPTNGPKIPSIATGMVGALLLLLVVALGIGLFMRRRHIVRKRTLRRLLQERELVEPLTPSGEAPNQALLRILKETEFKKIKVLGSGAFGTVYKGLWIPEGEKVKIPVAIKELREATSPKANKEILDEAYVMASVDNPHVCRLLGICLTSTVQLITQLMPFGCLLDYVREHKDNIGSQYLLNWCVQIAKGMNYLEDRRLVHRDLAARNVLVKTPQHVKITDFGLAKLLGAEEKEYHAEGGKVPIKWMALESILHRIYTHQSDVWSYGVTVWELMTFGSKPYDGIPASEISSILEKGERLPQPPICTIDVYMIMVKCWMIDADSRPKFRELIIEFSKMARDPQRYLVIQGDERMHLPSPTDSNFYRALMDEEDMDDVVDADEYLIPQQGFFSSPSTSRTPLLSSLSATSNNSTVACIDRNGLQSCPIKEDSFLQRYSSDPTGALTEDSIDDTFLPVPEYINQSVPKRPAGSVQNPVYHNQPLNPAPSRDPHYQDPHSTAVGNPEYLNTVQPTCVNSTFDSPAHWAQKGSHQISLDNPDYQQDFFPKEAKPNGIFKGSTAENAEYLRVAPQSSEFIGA
Chain of Maternal embryonic leucine zipper kinase (Homo sapiens) (Q14680 whole entry, looked up): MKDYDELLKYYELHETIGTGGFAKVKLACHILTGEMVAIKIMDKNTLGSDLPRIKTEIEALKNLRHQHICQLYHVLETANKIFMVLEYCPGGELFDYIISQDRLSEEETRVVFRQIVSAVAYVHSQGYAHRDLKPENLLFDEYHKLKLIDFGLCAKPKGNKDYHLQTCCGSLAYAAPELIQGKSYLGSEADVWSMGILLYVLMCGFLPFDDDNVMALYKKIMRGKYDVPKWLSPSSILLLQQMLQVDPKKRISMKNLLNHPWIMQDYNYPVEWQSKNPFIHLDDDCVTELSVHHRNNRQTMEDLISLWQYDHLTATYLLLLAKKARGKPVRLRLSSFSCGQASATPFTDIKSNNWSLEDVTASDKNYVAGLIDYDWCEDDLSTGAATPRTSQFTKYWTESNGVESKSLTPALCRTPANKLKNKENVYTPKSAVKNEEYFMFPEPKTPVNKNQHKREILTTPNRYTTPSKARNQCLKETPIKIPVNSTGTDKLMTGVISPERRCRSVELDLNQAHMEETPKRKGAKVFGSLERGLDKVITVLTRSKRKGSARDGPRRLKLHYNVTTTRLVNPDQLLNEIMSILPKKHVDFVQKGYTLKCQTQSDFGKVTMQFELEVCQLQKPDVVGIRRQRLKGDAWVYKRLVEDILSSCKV
Chain of Mitogen-activated protein kinase 14 (Q16539 whole entry): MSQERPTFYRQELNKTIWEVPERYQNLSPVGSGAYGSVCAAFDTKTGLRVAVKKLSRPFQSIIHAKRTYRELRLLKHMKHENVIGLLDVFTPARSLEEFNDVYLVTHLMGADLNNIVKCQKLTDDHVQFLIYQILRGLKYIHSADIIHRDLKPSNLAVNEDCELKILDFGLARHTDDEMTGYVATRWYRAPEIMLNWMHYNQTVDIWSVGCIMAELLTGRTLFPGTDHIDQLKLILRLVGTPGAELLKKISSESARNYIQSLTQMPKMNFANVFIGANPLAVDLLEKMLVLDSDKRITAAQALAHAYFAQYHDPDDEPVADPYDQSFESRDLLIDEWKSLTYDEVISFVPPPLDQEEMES
Chain of Receptor tyrosine-protein kinase erbB-4 (Q15303 whole entry): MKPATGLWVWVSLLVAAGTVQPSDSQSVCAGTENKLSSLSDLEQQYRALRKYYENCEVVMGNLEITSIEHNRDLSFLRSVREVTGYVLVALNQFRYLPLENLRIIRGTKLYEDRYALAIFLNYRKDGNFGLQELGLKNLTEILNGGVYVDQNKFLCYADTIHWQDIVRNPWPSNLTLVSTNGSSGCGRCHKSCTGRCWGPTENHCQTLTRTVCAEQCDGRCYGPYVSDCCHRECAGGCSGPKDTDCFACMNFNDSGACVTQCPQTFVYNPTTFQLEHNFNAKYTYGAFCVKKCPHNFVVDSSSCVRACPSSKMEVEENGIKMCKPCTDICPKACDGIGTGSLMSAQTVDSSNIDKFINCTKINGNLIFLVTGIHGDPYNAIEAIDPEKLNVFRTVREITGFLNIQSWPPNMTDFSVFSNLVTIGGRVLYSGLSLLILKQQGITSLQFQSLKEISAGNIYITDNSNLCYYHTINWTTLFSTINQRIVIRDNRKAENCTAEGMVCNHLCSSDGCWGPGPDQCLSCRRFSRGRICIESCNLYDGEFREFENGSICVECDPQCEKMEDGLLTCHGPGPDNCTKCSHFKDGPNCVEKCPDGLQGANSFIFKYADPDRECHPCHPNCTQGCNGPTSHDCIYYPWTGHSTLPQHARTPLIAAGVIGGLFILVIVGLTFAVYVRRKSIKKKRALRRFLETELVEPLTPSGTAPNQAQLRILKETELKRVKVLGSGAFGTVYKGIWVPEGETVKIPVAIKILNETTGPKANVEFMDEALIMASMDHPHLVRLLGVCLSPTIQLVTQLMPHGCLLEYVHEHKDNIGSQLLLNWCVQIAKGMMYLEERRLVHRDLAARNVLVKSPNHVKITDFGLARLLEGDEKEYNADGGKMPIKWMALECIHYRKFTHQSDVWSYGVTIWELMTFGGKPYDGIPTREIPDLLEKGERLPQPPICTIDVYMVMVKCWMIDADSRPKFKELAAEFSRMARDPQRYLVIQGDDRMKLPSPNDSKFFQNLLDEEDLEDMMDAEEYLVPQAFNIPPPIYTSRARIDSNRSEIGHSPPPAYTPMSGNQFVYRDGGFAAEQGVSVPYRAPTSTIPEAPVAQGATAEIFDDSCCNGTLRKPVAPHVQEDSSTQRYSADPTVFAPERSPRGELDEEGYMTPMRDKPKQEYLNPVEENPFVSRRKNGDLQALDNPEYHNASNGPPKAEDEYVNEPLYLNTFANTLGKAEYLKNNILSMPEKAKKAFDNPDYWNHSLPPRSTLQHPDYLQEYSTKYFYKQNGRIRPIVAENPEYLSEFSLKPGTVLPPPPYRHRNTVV

`COCC(=O)NC/C=C/c1ccc2ncnc(Nc3ccc(Oc4ccc(C)nc4)c(C)c3)c2c1` [CP-724714]: the % of control in test [1] and in test [2] was 100% throughout.

The compound `N#Cc1cccc(-c2c[nH]c3ncnc(N4CCOCC4)c23)c1` yielded a % of control in test [3] of 82%. In test [4], the % of inhibition turned out to be 14%.

For the compound `CCN(CC)CCCCNc1ncc2cc(-c3cc(OC)cc(OC)c3)c(NC(=O)NC(C)(C)C)nc2n1`, the % of control in test [5] and in [6] was 100% each time.

In turn, `Cc1cc(F)c(C(=O)Nc2cccc(-c3nncn3C(C)C)n2)cc1-n1cnc(C2CC2)c1` yielded a % of control in [7] of 100%.

As for `CN1Cc2nccc(-c3cn(C)nc3-c3ccc(F)cc3)c2C1=O`, in [8], the % of inhibition is -4%.

Regarding `CC(=O)Nc1cccc(-n2c(=O)n(C3CC3)c(=O)c3c(Nc4ccc(I)cc4F)n(C)c(=O)c(C)c32)c1`, the % of control in [9] amounted to 109%.
